Patent US10604473B2, “Lipids that increase insulin sensitivity and methods of using the same” (Beth Israel Deaconess Medical Center, Inc., priority 2013, dated 2020)
“Also recorded” adds a separate entry of the source.

Experiments:
GPR120 = molecular target: T1, GPR120 (Homo sapiens, UniProt Q5NUL3); assay: PathHunter beta-Arrestin GPCR assay; type: cell-based
T1 construct: beta-galactosidase enzyme fragment (ProLink)
T1 sequence (Q5NUL3 1-377 isoform Q5NUL3-1): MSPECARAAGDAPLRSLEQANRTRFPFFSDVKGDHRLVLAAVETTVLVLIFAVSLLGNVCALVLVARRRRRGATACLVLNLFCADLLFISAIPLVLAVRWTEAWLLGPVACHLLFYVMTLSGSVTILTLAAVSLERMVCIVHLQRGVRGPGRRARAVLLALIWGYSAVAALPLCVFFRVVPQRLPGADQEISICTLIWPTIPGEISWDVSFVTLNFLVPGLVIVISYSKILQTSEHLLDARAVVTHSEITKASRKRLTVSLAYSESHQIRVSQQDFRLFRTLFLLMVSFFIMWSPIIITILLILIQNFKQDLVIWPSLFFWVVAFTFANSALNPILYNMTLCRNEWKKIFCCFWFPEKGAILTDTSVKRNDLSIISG
Source text: FIGS. 57A and 57B are graphs showing GPR120 activation by 9-PAHSA and GPR120 knockdown in 3T3-L1 adipocytes. Specifically, FIG. 57A depicts a GPR120 activity assay using the PathHunter® eXpress GPR120L β-Arrestin GPCR Assay (DiscoverX). n=3 wells per condition. FIG. 57B is a bar graph showing validation of GPR120 knockdown in differentiated 3T3-L1 adipocytes. 3T3-L1 adipocytes (Day 8 post differentiation) were transfected with non-targeting (control) siRNA or three individual GPR120 targeting siRNA's individually or in combination. 48 h post-transfection GPR120 mRNA levels were measured by qPCR and normalized to TBP mRNA levels. n=3 wells per condition.
For the experiments summarized in FIGS. 43-45, the fragment based GPCR assay from DiscoveRx (PATHHUNTER® β-Arrestin assay) was used to as per manufacturer's instructions to determine activation of specific GPCRs as indicated in FIGS. 43-45.

STC-1 cells = assay: Calcium flux (FURA2) in STC-1 cells; type: cell-based; conditions: 100 uM, no extracellular Ca2+
Method: For the experiments summarized in FIG. 39 the method is: Cells grown on collagen coated glass slides were preloaded with the calcium indicator, FURA2, for 60 minutes. Buffer containing either FAHFAs or vehicle was incubated with cells for a period of 3 minutes followed by washout with buffer alone. FURA2 fluorescence, an indicator of Calcium mobilization, was monitored continuously before and during the addition of compounds and throughout the washout period. Results were analyzed with metamorph software. Calcium Flux in STC-1 (intestinal enteroendocrine) cells in the absence of extracellular calcium (calcium free buffer). Ligands were injected after 3 minutes and washed out after an additional 3 minutes. The data presented is the average fold change in Fura2 fluorescence for 10 individual STC-1 cells in the same field.
DMSO control had no effect. Top panel is linoleic acid, a positive control. Middle panel 9-PAHSA (100 uM). Bottom panel 5-PAHSA (100 μM). These experiments were done in the absence of extracellular calcium.

[1] = tested on: insulin-resistant high-fat fed mice; assay: Insulin tolerance test in HFD-fed mice; type: in vivo, mouse; conditions: for baseline glycemia: 2.5-3 hours after administration; for area above the insulin response curve / insulin sensitivity: ITT
Method: (§1) Area under the curve (AUC), *p<0.05 compared to vehicle. […] Area above the curve (AAC). *p<0.05 compared to vehicle. […] Area under the curve (AUC). *p<0.05 compared to vehicle. FIG. 53D is a bar graph showing serum insulin levels 5 min post glucose challenge in chow-fed mice gavaged with 5-PAHSA or vehicle (glucose values shown in FIG. 53C). n=12-14 per group, *p<0.05 compared to vehicle by t-test. FIG. 53E is a bar graph showing serum GLP-1 levels 5 min post glucose challenge from chow-fed mice gavaged with 5-PAHSA or vehicle (glucose levels in FIG. 53C). n=12-14 per group, *p<0.05 compared to vehicle by t-test. FIG. 53F are bar graphs showing insulin secretion from primary human islets from two independent donors. Islets were incubated with low (2.5 mM) or high (20 mM) glucose ex vivo in the presence of 5-PAHSA (20 μM) or vehicle control. n=100 islets per condition, *p<0.05 compared to control 2.5 mM glucose, ^#p<0.05 compared to respective treatments at 2.5 mM glucose, ^$p<0.05 compared to control or diluents at 20 mM glucose by t-test. FIG. 53G are bar graphs showing active GLP-1 secretion from STC-1 cells in response to 5-PAHSA (5-P), 9-PAHSA (9P), […] (LA), GW9508 (GW) or vehicle control (DMSO). n=4 per group, *p<0.05 compared to vehicle by t-test. All data are mean±s.e.m. See also FIG. 56.

[2] = tested on: insulin-resistant high-fat fed mice; assay: Oral glucose tolerance test in HFD-fed mice; type: in vivo, mouse; conditions: for basal glycemia: 30 minutes after oral administration; for area under the glucose excursion curve / glucose tolerance: OGTT, gavage 30 min prior
Method: as §1

| Compound | GPR120 activation (GPR120) | Ca2+ flux from intracellular stores (STC-1 cells) | baseline glycemia [1] | area above the insulin response curve [1] | insulin sensitivity [1] | basal glycemia [2] | area under the glucose excursion curve [2] | glucose tolerance [2] |
| --- | --- | --- | --- | --- | --- | --- | --- | --- |
| CCCCCCCCCCCCCCCC(=O)OC(CCCCCCCCCCCCC)CCCC(=O)O (stereo not shown) [5-PAHSA] | dose-dependently activated GPR120; also recorded: activate GPR120 | induce Ca2+ flux from intracellular stores | lowered baseline glycemia | more than a doubling | improved insulin sensitivity | lowered basal glycemia | reduced area under the glucose excursion curve | improved glucose tolerance |
| CCCCCCCCCCCCCCCC(=O)OC(CCCCCCCCC)CCCCCCCC(=O)O (stereo not shown) [9-PAHSA, palmitoyl-9-hydroxystearic acid] | dose-dependently activated GPR120; also recorded: is a ligand for the GPCR, GPR120; also recorded: activate GPR120 | induce Ca2+ flux from intracellular stores | lowered baseline glycemia | more than a doubling | improved insulin sensitivity | lowered basal glycemia | reduced area under the glucose excursion curve | improved glucose tolerance |
